Measurements as given in patent US10500166B2, “Methods for the treatment of erectile dysfunction using fispemifene” (QUATRX PHARMACEUTICALS, priority 2007, dated 2019).

How the values were obtained:
[1] = test system: DHT (dihydrotestosterone); assay: Example 3 study in hypogonadal men: serum dihydrotestosterone (ITT); assay type: in vivo, human; conditions: for Dihydrotestosterone, Max / Dihydrotestosterone, Mean ± SD / Dihydrotestosterone, Median / Dihydrotestosterone, Min: Baseline (Visit 2);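 on Dihydrotestosterone, Max: serum DHT concentration in pg/mL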;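 on Dihydrotestosterone, Mean ± SD: serum DHT concentration in pg/mL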;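 on Dihydrotestosterone, Median: serum DHT concentration in pg/mL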;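 on Dihydrotestosterone, Min: serum DHT concentration in pg/mL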
Method: A randomized, double-blind, placebo controlled, parallel-group study of once-daily doses of fispemifene (100, 200, and 300 mg/day) given for 4 weeks was conducted in a population of hypogonadal men. Subjects were required to meet all of the following inclusion criteria at screening and prior to randomization to be eligible for the study:
There were 77 subjects total. The number of subjects randomized to the 100 mg fispemifene, 200 mg fispemifene, 300 mg fispemifene, and placebo arms were 21, 21, 19, and 16, respectively.
Subjects were randomly assigned to one of four treatment groups in a 1:1:1:1 ratio: • Treatment A (100 mg): fispemifene 100 mg+placebo+placebo; • Treatment B (200 mg): fispemifene 100 mg+fispemifene 100 mg+placebo; • Treatment C (300 mg): fispemifene 100 mg+fispemifene 100 mg+fispemifene 100 mg; and • Treatment D (Placebo): placebo+placebo+placebo.
Subjects took one dose (three capsules) of study medication once a day at home for 4 weeks. Capsules were to be taken in the morning immediately after breakfast, with the exception of the morning of the Week 4 visit. Capsules were not to be taken on the morning of the Week 4 visit because trough plasma levels of fispemifene were determined by a blood sample taken at this visit. Each subject was randomly assigned to treatment with one of the 3 different dose regimens of fispemifene or placebo vehicle. Each subject received a 4 week supply of study drug.
Blood samples were taken from the subjects within 1 week prior to dosing with study drug to establish baseline values; after 2 and 4 weeks of randomization; and 2 weeks after the last dose of study drug. Serum was prepared from those samples and used to determine the mean % change from baseline in total testosterone, free testosterone, SHBG (sex hormone-binding globulin), DHT (dihydrotestosterone), E2 (estradiol), LH (luteinizing hormone), FSH (follicle stimulating hormone), and inhibin B.
3. Percent change from baseline in SHBG, DHT, E2, LH, FSH, inhibin B, and testosterone/E2 ratio at Weeks 2, 4, and 6.

LH = assay: Phase I repeated dose study 101-50202: serum LH; assay type: in vivo, human
Description: Fispemifene has been studied in two phase I studies in humans—in a single dose and a repeated dose study. Effect of fispemifene on hormone levels was one main focus of the repeated dose study. The phase I repeated dose study (number 101-50202) was a randomized, double-blind, placebo-controlled 28-day dose-escalation study performed in 31 healthy, elderly men, aged 50-68 years. The main objective of the study was to investigate the tolerability, safety and pharmacokinetics of fispemifene after repeated oral doses, but the study focused also on the effects of fispemifene on serum free and total testosterone, estradiol, and other relevant hormones. The fispemifene doses 10, 30, 100 and 300 mg per day and placebo were administered once every morning as capsules containing 10 mg or 100 mg of fispemifene, or placebo.
The variables for safety and tolerability were adverse events, vital signs, 12-lead ECG, clinical laboratory evaluations, physical examination, ultrasound examinations (mammary glands) and inhibin B. For pharmacokinetics, the concentrations of fispemifene and its metabolite(s) were to be evaluated. For pharmacodynamics, serum concentrations of FSH, LH, estradiol, testosterone, SHBG, prolactin, aldosterone, cortisol and TSH before and during treatment were measured and compared with the concentrations in the placebo-group.

[2] = 100 mg/day, to Week 6 (2 weeks after discontinuation)
[3] = 200 mg/day, to Week 6 (2 weeks after discontinuation)
[4] = 300 mg/day, to Week 6 (2 weeks after discontinuation)

OCCOCCOc1ccc(/C(=C(/CCCl)c2ccccc2)c2ccccc2)cc1 [Fispemifene, (Z)-2-{2-[4-(4-Chloro-1,2-diphenylbut-1-enyl)phenoxy]ethoxy}ethanol]
Dihydrotestosterone, Max ([1]; 100 mg/day): 385.0 pg/mL | Dihydrotestosterone, Mean ± SD ([1]; 100 mg/day): 177.5 ± 88.58 pg/mL | Dihydrotestosterone, Median ([1]; 100 mg/day): 180.0 pg/mL | Dihydrotestosterone, Min ([1]; 100 mg/day): 50.0 pg/mL | Dihydrotestosterone, % Change from Baseline, Max ([1]; 100 mg/day, to Week 2): 109% | Dihydrotestosterone, % Change from Baseline, Median ([1]; 100 mg/day, to Week 2): 42% | Dihydrotestosterone, % Change from Baseline, Min ([1]; 100 mg/day, to Week 2): 0% | Dihydrotestosterone, % Change from Baseline, Max ([1]; 100 mg/day, to Week 4): 98% | Dihydrotestosterone, % Change from Baseline, Median ([1]; 100 mg/day, to Week 4): 33% | Dihydrotestosterone, % Change from Baseline, Max [1, 2]: 64% | Dihydrotestosterone, % Change from Baseline, Median [1, 2]: 19% | Dihydrotestosterone, Max ([1]; 200 mg/day): 398.0 pg/mL | Dihydrotestosterone, Mean ± SD ([1]; 200 mg/day): 185.2 ± 95.37 pg/mL | Dihydrotestosterone, Median ([1]; 200 mg/day): 168.0 pg/mL | Dihydrotestosterone, Min ([1]; 200 mg/day): 67.0 pg/mL | Dihydrotestosterone, % Change from Baseline, Max ([1]; 200 mg/day, to Week 2): 128% | Dihydrotestosterone, % Change from Baseline, Median ([1]; 200 mg/day, to Week 2): 50% | Dihydrotestosterone, % Change from Baseline, Max ([1]; 200 mg/day, to Week 4): 162% | Dihydrotestosterone, % Change from Baseline, Median ([1]; 200 mg/day, to Week 4): 61% | Dihydrotestosterone, % Change from Baseline, Max [1, 3]: 78% | Dihydrotestosterone, % Change from Baseline, Median [1, 3]: 11% | Dihydrotestosterone, Max ([1]; 300 mg/day): 294.0 pg/mL | Dihydrotestosterone, Mean ± SD ([1]; 300 mg/day): 171.6 ± 76.42 pg/mL | Dihydrotestosterone, Median ([1]; 300 mg/day): 179.0 pg/mL | Dihydrotestosterone, Min ([1]; 300 mg/day): 50.0 pg/mL | Dihydrotestosterone, % Change from Baseline, Max ([1]; 300 mg/day, to Week 2): 162% | Dihydrotestosterone, % Change from Baseline, Median ([1]; 300 mg/day, to Week 2): 65% | Dihydrotestosterone, % Change from Baseline, Min ([1]; 300 mg/day, to Week 2): 0% | Dihydrotestosterone, % Change from Baseline, Max ([1]; 300 mg/day, to Week 4): 163% | Dihydrotestosterone, % Change from Baseline, Median ([1]; 300 mg/day, to Week 4): 73% | Dihydrotestosterone, % Change from Baseline, Min ([1]; 300 mg/day, to Week 4): 0% | Dihydrotestosterone, % Change from Baseline, Max [1, 4]: 98% | Dihydrotestosterone, % Change from Baseline, Median [1, 4]: 19% | Serum LH, Mean (LH; 10 mg/day, Baseline): 3.47 U/L | Serum LH, Mean (LH; 10 mg/day, Day 8): 3.12 U/L | Serum LH, Mean (LH; 10 mg/day, Day 15): 2.87 U/L | Serum LH, Mean (LH; 10 mg/day, Day 22): 3.56 U/L | Serum LH, Mean (LH; 10 mg/day, Day 28): 3.02 U/L | Serum LH, Mean (LH; 30 mg/day, Baseline): 3.58 U/L | Serum LH, Mean (LH; 30 mg/day, Day 8): 4.26 U/L | Serum LH, Mean (LH; 30 mg/day, Day 15): 5.02 U/L | Serum LH, Mean (LH; 30 mg/day, Day 22): 4.32 U/L | Serum LH, Mean (LH; 30 mg/day, Day 28): 4.42 U/L | Serum LH, Mean (LH; 100 mg/day, Baseline): 4.12 U/L | Serum LH, Mean (LH; 100 mg/day, Day 8): 5.52 U/L | Serum LH, Mean (LH; 100 mg/day, Day 15): 6.82 U/L | Serum LH, Mean (LH; 100 mg/day, Day 22): 7.18 U/L | Serum LH, Mean (LH; 100 mg/day, Day 28): 7.60 U/L | Serum LH, Mean (LH; 300 mg/day, Baseline): 4.58 U/L | Serum LH, Mean (LH; 300 mg/day, Day 8): 6.80 U/L | Serum LH, Mean (LH; 300 mg/day, Day 15): 6.75 U/L | Serum LH, Mean (LH; 300 mg/day, Day 22): 7.77 U/L | Serum LH, Mean (LH; 300 mg/day, Day 28): 6.70 U/L | effect on serum concentration of LH (LH; during the 28 days of treatment): increased
